Some results are limits rather than exact numbers.

One may read the EC50 as the concentration that produces a half-maximal response.

One experiment deals with Aβ42. Kind of experiment: In vitro cell screening assay in H4 cells expressing human APP751: Aβ42 by sandwich ELISA. The class given is cell-based. As to conditions: Homo sapiens, compounds 0.003-10 μM, incubated overnight (16-18 h), sandwich ELISA of supernatant. On the procedure:
Human neuroglioma H4 cells were transfected with a pcDNA3.1 plasmid expressing human wild type APP751 cDNA and a stable cell line was generated using G418 selection. Cells were plated at 15,000 cells/well in Costar 96-well plates and placed at 37° C. and 5% CO2. Six hours after plating, cells were washed three times with Pro293™ chemically defined medium, followed by addition of compounds (0.003-10 μM, final DMSO concentration of 0.33%). Plates were incubated overnight (16-18 h) and supernatant was removed for quantification of Aβ peptides by sandwich ELISA. Cytotoxicity was evaluated using Cell-Titer 96W AQueous One Solution Cell Proliferation Assay according to the manufacturer's protocol.
Aβ peptide levels were quantified by sandwich ELISA. 96-well plates were coated with C-terminal specific Aβ antibodies recognizing either Aβ37, Aβ38, Aβ40, Aβ42, Aβ43 or a N-terminal specific Aβ antibody to detect Aβ 1-x. Plates were then blocked overnight at 4° C. with 1% bovine serum albumin (BSA) in PBS-T. Plates were washed and 100 μl of cultured cell supernatant or synthetic Aβ peptide standards and a detection antibody (4G8-HRP) were applied to the blocked plate and incubated overnight at 4° C. The next day, wells were washed before the addition of detection substrate (TMB peroxidase). Plates were then read for absorbance at 450 nm on a Molecular Devices SpectraMax M5e Microplate Reader.
Compound-treated samples were normalized to samples treated with DMSO alone (no inhibition) and to samples treated with DAPT. EC50 values were calculated from values reported as percent of DMSO controls using nonlinear regression, based on a sigmoidal dose response (variable slope) model. GraphPAD software from Prism used for calculation.
(ELISA stands for enzyme-linked immunosorbent assay.)
`COc1nc(C2=NOCC(c3cc4cccc(C)c4o3)N2C)ccc1-n1cnc(C)c1` (single isomer, unassigned; (+)) [Example 23, (+)-3-(6-Methoxy-5-(4-methyl-1H-imidazol-1-yl)pyridin-2-yl)-4-methyl-5-(7-methylbenzofuran-2-yl)-5,6-dihydro-4H-1,2,4-oxadiazine] had an EC50 of 61.9 nM.

Compound `COc1nc(C2=NOCC(c3cc4cccc(C)c4o3)N2)ccc1-n1cnc(Cl)c1` (single isomer, unassigned; (+)) [Example 24, (+)-3-(5-(4-Chloro-1H-imidazol-1-yl)-6-methoxypyridin-2-yl)-5-(7-methylbenzofuran-2-yl)-5,6-dihydro-4H-1,2,4-oxadiazine] registered an EC50 of 13.7 nM.

`COc1cn(-c2ccc(C3=NOCC(c4cc5cccc(C)c5o4)N3)nc2OC)cn1` (single isomer, unassigned; (+)) [Example 33, (+)-3-(6-methoxy-5-(4-methoxy-1H-imidazol-1-yl)pyridin-2-yl)-5-(7-methylbenzofuran-2-yl)-5,6-dihydro-4H-1,2,4-oxadiazine] showed an EC50 of 147 nM.

Staying with this experiment, now noted: compounds 0.003-10 μM, incubated overnight (16-18 h), sandwich ELISA of supernatant.
`COc1nc(C2=NOCC(CC3CC3)N2)ccc1-n1cnc(C)c1` (single isomer, unassigned) [Example 159B, 5-(cyclopropylmethyl)-3-(6-methoxy-5-(4-methyl-1H-imidazol-1-yl)pyridin-2-yl)-5,6-dihydro-4H-1,2,4-oxadiazine]: the EC50 stood at 695 nM.

The compound `COc1nc(C2=NOCC(c3noc4ccccc34)N2)ccc1-n1cnc(C)c1` (single isomer, unassigned) [Example 174A, 3-(3-(6-methoxy-5-(4-methyl-1H-imidazol-1-yl)pyridin-2-yl)-5,6-dihydro-4H-1,2,4-oxadiazin-5-yl) benzo[d]isoxazole] had an EC50 greater than 3000 nM.

`COc1nc(C2=NOCC(c3noc4ccccc34)N2)ccc1-n1cnc(C)c1` (single isomer, unassigned) [Example 174B, 3-(3-(6-methoxy-5-(4-methyl-1H-imidazol-1-yl)pyridin-2-yl)-5,6-dihydro-4H-1,2,4-oxadiazin-5-yl) benzo[d]isoxazole] yielded an EC50 of 281 nM.

For the compound `COc1nc(C2=NOCC(c3ccc(Cl)c(C(F)(F)F)c3)N2)ccc1-n1cnc(C)c1` (single isomer, unassigned) [Example 253A, 5-(4-chloro-3-(trifluoromethyl)phenyl)-3-(6-methoxy-5-(4-methyl-1H-imidazol-1-yl)pyridin-2-yl)-5,6-dihydro-4H-1,2,4-oxadiazine], the EC50 turned out to be 654 nM.

As to `COc1nc(C2=NOCC(c3ccc(Cl)c(C(F)(F)F)c3)N2)ccc1-n1cnc(C)c1` (single isomer, unassigned) [Example 253B, 5-(4-chloro-3-(trifluoromethyl)phenyl)-3-(6-methoxy-5-(4-methyl-1H-imidazol-1-yl)pyridin-2-yl)-5,6-dihydro-4H-1,2,4-oxadiazine], the EC50 was 8.4 nM.

The compound `COc1nc(C2=NOCC(c3cc4ccccc4o3)N2)ccc1-n1cnc(C)n1` (single isomer, unassigned; (+)) [Example 31B, (+)-5-(Benzofuran-2-yl)-3-(6-methoxy-5-(3-methyl-1H-1,2,4-triazol-1-yl)pyridin-2-yl)-5,6-dihydro-4H-1,2,4-oxadiazine] returned an EC50 of 636 nM.

In the case of `COc1nc(C2=NOCC(c3ccc(Cl)c(Cl)c3)N2)ccc1-n1cnc(C)c1` (single isomer, unassigned; (+)) [Example 49B, (+)-5-(3,4-dichlorophenyl)-3-(6-methoxy-5-(4-methyl-1H-imidazol-1-yl)pyridin-2-yl)-5,6-dihydro-4H-1,2,4-oxadiazine], it took 11.4 nM to reach a half-maximal effect (EC50).

`COc1nc(C2=NOCC(c3cc4ccc(F)cc4o3)N2)ccc1-n1cnc(C)c1` (single isomer, unassigned; (+)) [Example 52B, (+)-5-(6-fluorobenzofuran-2-yl)-3-(6-methoxy-5-(4-methyl-1H-imidazol-1-yl)pyridin-2-yl)-5,6-dihydro-4H-1,2,4-oxadiazine] registered an EC50 of 24.6 nM.

For the compound `COc1ccc(C2CON=C(c3ccc(-n4cnc(C)c4)c(OC)n3)N2)cc1` (single isomer, unassigned; (+)) [Example 54B, (+)-3-(6-methoxy-5-(4-methyl-1H-imidazol-1-yl)pyridin-2-yl)-5-(4-methoxyphenyl)-5,6-dihydro-4H-1,2,4-oxadiazine], the EC50 turned out to be 97.4 nM.

As to `COc1nc(C2=NOCC(c3cc4cc(Cl)ccc4o3)N2)ccc1-n1cnc(C)c1` (single isomer, unassigned; (+)) [Example 57B, (+)-5-(5-chlorobenzofuran-2-yl)-3-(6-methoxy-5-(4-methyl-1H-imidazol-1-yl)pyridin-2-yl)-5,6-dihydro-4H-1,2,4-oxadiazine], the response was half-maximal at 17.8 nM (EC50).

As for `COc1nc(C2=NOCC(c3ccc(C(F)(F)F)cc3)N2)ccc1-n1cnc(C)c1` (single isomer, unassigned; (+)) [Example 59B, (+)-3-(6-methoxy-5-(4-methyl-1H-imidazol-1-yl)pyridin-2-yl)-5-(4-(trifluoromethyl)phenyl)-5,6-dihydro-4H-1,2,4-oxadiazine], the EC50 is 33.7 nM.

With `COc1nc(C2=NOCC(C3CCCCC3)N2)ccc1-n1cnc(C)c1` (single isomer, unassigned; (+)) [Example 61B, (+)-5-cyclohexyl-3-(6-methoxy-5-(4-methyl-1H-imidazol-1-yl)pyridin-2-yl)-5,6-dihydro-4H-1,2,4-oxadiazine], the midpoint of the response, the EC50, lay at 57.8 nM.

With `COc1nc(C2=NOCC(c3cc4cccc(Cl)c4o3)N2)ccc1-n1cnc(C)c1` (single isomer, unassigned; (+)) [Example 64B, (+)-5-(7-chlorobenzofuran-2-yl)-3-(6-methoxy-5-(4-methyl-1H-imidazol-1-yl)pyridin-2-yl)-5,6-dihydro-4H-1,2,4-oxadiazine], the EC50 was found to be 12.2 nM.

In the case of `COc1nc(C2=NOCC(c3sc4ccccc4c3C)N2)ccc1-n1cnc(C)c1` (single isomer, unassigned; (+)) [Example 66B, (+)-3-(6-methoxy-5-(4-methyl-1H-imidazol-1-yl)pyridin-2-yl)-5-(3-methylbenzo [b]thiophen-2-yl)-5,6-dihydro-4H-1,2,4-oxadiazine], the EC50 is 9.1 nM.

`COc1nc(C2=NOCC(c3csc4ccccc34)N2)ccc1-n1cnc(C)c1` (single isomer, unassigned; (+)) [Example 68B, (+)-5-(benzo [b]thiophen-3-yl)-3-(6-methoxy-5-(4-methyl-1H-imidazol-1-yl)pyridin-2-yl)-5,6-dihydro-4H-1,2,4-oxadiazine] yielded an EC50 of 20.8 nM.

For `COc1nc(C2=NOCC(c3ccc(OC(F)(F)F)cc3)N2)ccc1-n1cnc(C)c1` (single isomer, unassigned; (+)) [Example 70B, (+)-3-(6-methoxy-5-(4-methyl-1H-imidazol-1-yl)pyridin-2-yl)-5-(4-(trifluoromethoxy)phenyl)-5,6-dihydro-4H-1,2,4-oxadiazine], the EC50 was determined as 21.8 nM.

With `CCn1cc(C2CON=C(c3ccc(-n4cnc(C)c4)c(OC)n3)N2)c2cc(Cl)c(F)cc21` (single isomer, unassigned; (+)) [Example 73B, (+)-5-(5-chloro-1-ethyl-6-fluoro-1H-indol-3-yl)-3-(6-methoxy-5-(4-methyl-1H-imidazol-1-yl)pyridin-2-yl)-5,6-dihydro-4H-1,2,4-oxadiazine], the EC50 was found to be 3.9 nM.

The values above are taken from patent publication US9802927B2, “Oxadiazine compounds and methods of use thereof” (Denali Therapeutics, Inc., priority 2015, dated 2017).
